From patent US8952024B2, “Herbicidal pyrimidone derivatives” (E I du Pont de Nemours and Company, priority 2009, dated 2015)

Columns and labels:
Assay type in all cases: in vivo
[1] = tested on: Surinam grass (Brachiaria decumbens); experiment: Test B pre-/postemergence plant response
Summary of the method: (§1)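 Visual injury, 0–100 scale (100 = complete control), rated against controls after 13 to 15 days in greenhouse. Pre-emergence: seeds in loam/sand soil, treated at planting. Post-emergence: 1- to 4-leaf plants (2 to 18 cm) in peat/vermiculite medium. Compounds formulated in non-phytotoxic solvent with surfactant.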

[2] = tested on: blackgrass (Alopecurus myosuroides); experiment: Test B pre-/postemergence plant response
Summary of the method: as §1

[3] = tested on: cocklebur (Xanthium strumarium); experiment: Test B pre-/postemergence plant response
Summary of the method: as §1

kochia (Kochia scoparia) = experiment: Test B pre-/postemergence plant response
Summary of the method: as §1

[4] = tested on: lambsquarters (Chenopodium album); experiment: Test B pre-/postemergence plant response
Summary of the method: as §1

[5] = tested on: pigweed (Amaranthus retroflexus); experiment: Test B pre-/postemergence plant response
Summary of the method: as §1

soybean (Glycine max) = experiment: Test B pre-/postemergence plant response
Summary of the method: as §1

[6] = tested on: velvetleaf (Abutilon theophrasti); experiment: Test B pre-/postemergence plant response
Summary of the method: as §1

[7] = tested on: wheat (Triticum aestivum); experiment: Test B pre-/postemergence plant response
Summary of the method: as §1

wild oat (Avena fatua) = experiment: Test B pre-/postemergence plant response
Summary of the method: as §1

[8] = tested on: canarygrass (Phalaris minor); experiment: Test B postemergence plant response; settings: Postemergence
Summary of the method: (§2)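 Plants grown in peat/vermiculite medium were sprayed postemergence at 2–18 cm height (1- to 4-leaf stage). After 13–15 days in the greenhouse, response was rated visually against untreated controls on a 0–100 scale (0 no effect, 100 complete control).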

[9] = tested on: chickweed (Stellaria media); experiment: Test B postemergence plant response; settings: Postemergence
Summary of the method: as §2

[10] = tested on: windgrass (Apera spica-venti); experiment: Test B postemergence plant response; settings: Postemergence
Summary of the method: as §2

[11] = Postemergence, 31 g ai/ha, 0 to 100 scale (0 no effect, 100 complete control)
[12] = Postemergence, 125 g ai/ha, scale 0 to 100 (0 no effect, 100 complete control)
[13] = Postemergence, 250 g ai/ha, scale 0 to 100 (0 no effect, 100 complete control), 13 to 15 days
[14] = 31 g ai/ha, 0 to 100 scale (0 no effect, 100 complete control)
[15] = 125 g ai/ha, scale 0 to 100 (0 no effect, 100 complete control)
[16] = 250 g ai/ha, scale 0 to 100 (0 no effect, 100 complete control), 13 to 15 days
[17] = Postemergence, 62 g ai/ha, scale 0 to 100 (0 no effect, 100 complete control)
[18] = 62 g ai/ha, scale 0 to 100 (0 no effect, 100 complete control)
[19] = Postemergence, 125 g ai/ha, scale 0 (no effect) to 100 (complete control), 13 to 15 days
[20] = Preemergence, 31 g ai/ha, scale 0 to 100 (0 no effect, 100 complete control)
[21] = Preemergence, 62 g ai/ha, scale 0 to 100 (0 no effect, 100 complete control)
[22] = Preemergence, 125 g ai/ha, scale 0 to 100, 0 no effect, 100 complete control
[23] = Preemergence, 250 g ai/ha, 0 to 100 scale
[24] = 125 g ai/ha, scale 0 (no effect) to 100 (complete control), 13 to 15 days

## CCCn1c(-c2cc(C)cc(C)c2)ncc(C(=O)C2=C(O)CCCC2=O)c1=O [Compound 156]
[1]; [11]
  Plant response rating, Surinam Grass: 40
[1]; [12]
  Plant response rating, Surinam Grass: 60
[1]; [13]
  Plant response rating, Surinam Grass: 70
[2]; 62 g ai/ha, postemergence, 0 is no effect, 100 is complete control, 13 to 15 days
  Blackgrass plant response rating (0 to 100 scale): 5
[2]; [11]
  Plant response rating, Blackgrass: 5
[2]; [12]
  Plant response rating, Blackgrass: 35
[2]; [13]
  Plant response rating, Blackgrass: 50
[3]; [11]
  Plant response rating, Cocklebur: 20
[3]; [12]
  Plant response rating, Cocklebur: 75
[3]; [13]
  Plant response rating, Cocklebur: 98
Kochia (Kochia scoparia); [11]
  Plant response rating, Kochia: 10
Kochia (Kochia scoparia); [12]
  Plant response rating, Kochia: 20
Kochia (Kochia scoparia); [13]
  Plant response rating, Kochia: 25
[4]; [11]
  Plant response rating, Lambsquarters: 80
[4]; [12]
  Plant response rating, Lambsquarters: 95
[4]; [13]
  Plant response rating, Lambsquarters: 100
[5]; [11]
  Plant response rating, Pigweed: 60
[5]; [12]
  Plant response rating, Pigweed: 98
[5]; [13]
  Plant response rating, Pigweed: 100
Soybean (Glycine max); [11]
  Plant response rating, Soybean: 80
Soybean (Glycine max); [12]
  Plant response rating, Soybean: 98
Soybean (Glycine max); [13]
  Plant response rating, Soybean: 98
[6]; [11]
  Plant response rating, Velvetleaf: 60
[6]; [12]
  Plant response rating, Velvetleaf: 95
[6]; [13]
  Plant response rating, Velvetleaf: 100
[7]; [11]
  Plant response rating, Wheat: 15
[7]; [12]
  Plant response rating, Wheat: 35
[7]; [13]
  Plant response rating, Wheat: 45
Wild oat (Avena fatua); [11]
  Plant response rating, Oat, Wild: 5
Wild oat (Avena fatua); [12]
  Plant response rating, Oat, Wild: 35
Wild oat (Avena fatua); [13]
  Plant response rating, Oat, Wild: 50
[8]; [14]
  Plant response rating, Canarygrass: 15
[8]; [15]
  Plant response rating, Canarygrass: 40
[8]; [16]
  Plant response rating, Canarygrass: 60
[9]; [14]
  Plant response rating, Chickweed: 80
[9]; [15]
  Plant response rating, Chickweed: 100
[9]; [16]
  Plant response rating, Chickweed: 100
[10]; [14]
  Plant response rating, Windgrass: 40
[10]; [15]
  Plant response rating, Windgrass: 55
[10]; [16]
  Plant response rating, Windgrass: 60

## COCCn1c(-c2ccsc2)ncc(C(=O)C2=C(O)C3CCC(C3)C2=O)c1=O (centres unmarked) [Compound 228]
[1]; [11]
  Plant response rating, Surinam Grass: 75
[1]; [17]
  Plant response rating, Surinam Grass: 85
[1]; [13]
  Plant response rating, Surinam Grass: 98
[2]; [11]
  Plant response rating, Blackgrass: 5
[2]; [17]
  Plant response rating, Blackgrass: 35
[2]; [12]
  Plant response rating, Blackgrass: 50
[2]; [13]
  Plant response rating, Blackgrass: 55
[3]; [11]
  Plant response rating, Cocklebur: 98
[3]; [17]
  Plant response rating, Cocklebur: 98
[3]; [12]
  Plant response rating, Cocklebur: 100
[3]; [13]
  Plant response rating, Cocklebur: 100
Kochia (Kochia scoparia); [11]
  Plant response rating, Kochia: 90
Kochia (Kochia scoparia); [17]
  Plant response rating, Kochia: 100
Kochia (Kochia scoparia); [12]
  Plant response rating, Kochia: 100
Kochia (Kochia scoparia); [13]
  Plant response rating, Kochia: 100
[4]; [11]
  Plant response rating, Lambsquarters: 98
[4]; [17]
  Plant response rating, Lambsquarters: 98
[4]; [12]
  Plant response rating, Lambsquarters: 100
[4]; [13]
  Plant response rating, Lambsquarters: 100
[5]; [11]
  Plant response rating, Pigweed: 98
[5]; [17]
  Plant response rating, Pigweed: 100
[5]; [13]
  Plant response rating, Pigweed: 100
Soybean (Glycine max); [11]
  Plant response rating, Soybean: 95
Soybean (Glycine max); [17]
  Plant response rating, Soybean: 98
Soybean (Glycine max); [13]
  Plant response rating, Soybean: 100
[6]; [11]
  Plant response rating, Velvetleaf: 80
[6]; [17]
  Plant response rating, Velvetleaf: 100
[6]; [13]
  Plant response rating, Velvetleaf: 100
[7]; [11]
  Plant response rating, Wheat: 0
[7]; [17]
  Plant response rating, Wheat: 5
[7]; [13]
  Plant response rating, Wheat: 35
Wild oat (Avena fatua); [11]
  Plant response rating, Oat, Wild: 0
Wild oat (Avena fatua); [17]
  Plant response rating, Oat, Wild: 5
Wild oat (Avena fatua); [13]
  Plant response rating, Oat, Wild: 40
[8]; [14]
  Plant response rating, Canarygrass: 0
[8]; [18]
  Plant response rating, Canarygrass: 0
[8]; [15]
  Plant response rating, Canarygrass: 5
[8]; [16]
  Plant response rating, Canarygrass: 10
[9]; [14]
  Plant response rating, Chickweed: 98
[9]; [18]
  Plant response rating, Chickweed: 100
[9]; [15]
  Plant response rating, Chickweed: 100
[9]; [16]
  Plant response rating, Chickweed: 100
[10]; [14]
  Plant response rating, Windgrass: 5
[10]; [18]
  Plant response rating, Windgrass: 50
[10]; [16]
  Plant response rating, Windgrass: 90

## CCCCn1c(-c2cc(F)cc(F)c2)ncc(C(=O)C2=C(O)C3CCC(C3)C2=O)c1=O (centres unmarked) [Compound 245]
[1]; [11]
  Plant response rating, Surinam Grass: 100
[1]; [17]
  Plant response rating, Surinam Grass: 100
[1]; [19]
  Plant response rating, Surinam Grass: 100
[1]; [13]
  Plant response rating, Surinam Grass: 100
[1]; [20]
  Plant response rating, Surinam Grass: 95
[1]; [21]
  Plant response rating, Surinam Grass: 100
[1]; [22]
  Plant response rating, Surinam Grass: 100
[1]; [23]
  Surinam Grass plant response rating: 100
[2]; [11]
  Plant response rating, Blackgrass: 40
[2]; [17]
  Plant response rating, Blackgrass: 70
[2]; [19]
  Plant response rating, Blackgrass: 80
[2]; [13]
  Plant response rating, Blackgrass: 80
[2]; [20]
  Plant response rating, Blackgrass: 0
[2]; [21]
  Plant response rating, Blackgrass: 5
[2]; [22]
  Plant response rating, Blackgrass: 30
[2]; [23]
  Blackgrass plant response rating: 45
[3]; [20]
  Plant response rating, Cocklebur: 0
[3]; [21]
  Plant response rating, Cocklebur: 0
[3]; [22]
  Plant response rating, Cocklebur: 98
[3]; [23]
  Cocklebur plant response rating: 100
Kochia (Kochia scoparia); [11]
  Plant response rating, Kochia: 85
Kochia (Kochia scoparia); [17]
  Plant response rating, Kochia: 100
Kochia (Kochia scoparia); [19]
  Plant response rating, Kochia: 100
Kochia (Kochia scoparia); [13]
  Plant response rating, Kochia: 100
Kochia (Kochia scoparia); [20]
  Plant response rating, Kochia: 0
Kochia (Kochia scoparia); [21]
  Plant response rating, Kochia: 45
Kochia (Kochia scoparia); [22]
  Plant response rating, Kochia: 98
Kochia (Kochia scoparia); [23]
  Kochia plant response rating: 100
[4]; [11]
  Plant response rating, Lambsquarters: 98
[4]; [17]
  Plant response rating, Lambsquarters: 100
[4]; [19]
  Plant response rating, Lambsquarters: 100
[4]; [13]
  Plant response rating, Lambsquarters: 100
[4]; [20]
  Plant response rating, Lambsquarters: 100
[4]; [21]
  Plant response rating, Lambsquarters: 100
[4]; [22]
  Plant response rating, Lambsquarters: 100
[4]; [23]
  Lambsquarters plant response rating: 100
[5]; [11]
  Plant response rating, Pigweed: 80
[5]; [17]
  Plant response rating, Pigweed: 98
[5]; [19]
  Plant response rating, Pigweed: 100
[5]; [13]
  Plant response rating, Pigweed: 100
[5]; [20]
  Plant response rating, Pigweed: 80
[5]; [21]
  Plant response rating, Pigweed: 95
[5]; [22]
  Plant response rating, Pigweed: 100
[5]; [23]
  Pigweed plant response rating: 100
Soybean (Glycine max); [11]
  Plant response rating, Soybean: 95
Soybean (Glycine max); [17]
  Plant response rating, Soybean: 98
Soybean (Glycine max); [19]
  Plant response rating, Soybean: 100
Soybean (Glycine max); [13]
  Plant response rating, Soybean: 100
Soybean (Glycine max); [20]
  Plant response rating, Soybean: 0
Soybean (Glycine max); [21]
  Plant response rating, Soybean: 10
Soybean (Glycine max); [22]
  Plant response rating, Soybean: 55
Soybean (Glycine max); [23]
  Soybean plant response rating: 75
[6]; [11]
  Plant response rating, Velvetleaf: 100
[6]; [17]
  Plant response rating, Velvetleaf: 100
[6]; [19]
  Plant response rating, Velvetleaf: 100
[6]; [13]
  Plant response rating, Velvetleaf: 100
[6]; [20]
  Plant response rating, Velvetleaf: 95
[6]; [21]
  Plant response rating, Velvetleaf: 100
[6]; [22]
  Plant response rating, Velvetleaf: 100
[6]; [23]
  Velvetleaf plant response rating: 100
[7]; [11]
  Plant response rating, Wheat: 75
[7]; [17]
  Plant response rating, Wheat: 95
[7]; [19]
  Plant response rating, Wheat: 95
[7]; [13]
  Plant response rating, Wheat: 98
[7]; [20]
  Plant response rating, Wheat: 0
[7]; [21]
  Plant response rating, Wheat: 0
[7]; [22]
  Plant response rating, Wheat: 5
[7]; [23]
  Wheat plant response rating: 15
Wild oat (Avena fatua); [11]
  Plant response rating, Oat, Wild: 70
Wild oat (Avena fatua); [17]
  Plant response rating, Oat, Wild: 85
Wild oat (Avena fatua); [19]
  Plant response rating, Oat, Wild: 85
Wild oat (Avena fatua); [13]
  Plant response rating, Oat, Wild: 100
Wild oat (Avena fatua); [20]
  Plant response rating, Oat, Wild: 0
Wild oat (Avena fatua); [21]
  Plant response rating, Oat, Wild: 0
Wild oat (Avena fatua); [22]
  Plant response rating, Oat, Wild: 30
Wild oat (Avena fatua); [23]
  Oat, Wild plant response rating: 30
[8]; [14]
  Plant response rating, Canarygrass: 80
[8]; [18]
  Plant response rating, Canarygrass: 95
[8]; [24]
  Plant response rating, Canarygrass: 100
[8]; [16]
  Plant response rating, Canarygrass: 100
[9]; [14]
  Plant response rating, Chickweed: 80
[9]; [18]
  Plant response rating, Chickweed: 85
[9]; [24]
  Plant response rating, Chickweed: 100
[9]; [16]
  Plant response rating, Chickweed: 100
[10]; [14]
  Plant response rating, Windgrass: 65
[10]; [18]
  Plant response rating, Windgrass: 70
[10]; [24]
  Plant response rating, Windgrass: 95
[10]; [16]
  Plant response rating, Windgrass: 98
